The results in this text go back to ChEMBL document CHEMBL1133357, “Inhibition of neuraminidase with neuraminic acid C-glycosides” (Bioorg Med Chem Lett, 2000).

For orientation: Ki means the dissociation constant of the complex between target and ligand, obtained from inhibition or displacement.

A short description of this assay: The compound was tested for its inhibitory activity against bacterial neuraminidase. On the set-up: species or system Clostridium perfringens.

For `CC(=O)NC1C(O)CC(C(=O)O)([C@@H](O)C2C(O)C(CO)OC(OC(=O)c3ccccc3)C2O)OC1C(O)C(O)CO` (stereo not given in full), affinity was put at a Ki of 110 µM. For the compound `CCCCCCCC(O)[C@]1(C(=O)O)C[C@@H](O)[C@@H](NC(C)=O)C(C(O)C(O)CO)O1` (stereo not given in full), the Ki came out at 16 µM. `CC(=O)N[C@H]1C(C(O)C(O)CO)O[C@](C(=O)O)(C(C)(C)O)C[C@H]1O` (stereo not given in full) yielded a Ki of 29 µM. Take `COC1OC(CO)C(O)C([C@@H](O)C2(C(=O)O)CC(O)C(NC(C)=O)C(C(O)C(O)CO)O2)C1O` (stereo not given in full): the Ki is more than 1000 µM.

`CC(=O)NC1C(O)CC(C(=O)O)([C@H](O)C2C(O)C(CO)OC(OC(=O)c3ccccc3)C2O)OC1C(O)C(O)CO` (stereo not given in full) yielded a Ki of 229 µM.
